Results taken from ChEMBL document CHEMBL3826966, “A chromatography-free isolation of rohitukine from leaves of Dysoxylum binectariferum: Evaluation for in vitro cytotoxicity, Cdk inhibition and physicochemical properties” (Bioorg Med Chem Lett, 2016).

Columns and labels:
Assay type in all cases: physicochemical
[1] = Partition coefficient, logP of the compound in water/PBS buffer at 25 degC by OECD guidelines based method; details: octanol/water
[2] = Partition coefficient, logP of the compound in water/PBS buffer at pH 7.4 at 25 degC after 20 mins by shake flask method
[3] = Distribution coefficient, logD of the compound in water/PBS buffer at pH 7.4 at 25 degC after 20 mins by shake flask method
[4] = Ionization constant, pKa of the compound in buffer at pH 1 to 13 by uV spectrophotometry
[5] = Ionization constant, pKa of the compound

logP [1]: 1.01
logD at 20 min [2]: 0.21
logD at 20 min [3]: 1.24
pKa [4]: 5.56
pKa [5]: 5.68
Structure (SMILES): CN1CC[C@H](c2c(O)cc(O)c3c(=O)cc(-c4ccccc4Cl)oc23)[C@H](O)C1 [ALVOCIDIB]
